The source of these data is patent US10660855B2 (priority 2019, dated 2020).

The nature of data set [1]: Water-solubility / water-dispersing ability (FIG. 1). Particulars: FIG. 1, dispersed in water, bottle A vs bottle B. It counts as physicochemical.
The conditions of data set [2]: cited from earlier work.

As to Cannabidiol [CBD], the water-dispersing ability result in data set [1] is listed as “insoluble in water”. Moreover, the half-life result in data set [2] (in vivo) is recorded as “about 9 hours”. In addition, the “bioavailability when being used nasally (inhalantly)” value in data set [2] (nasal (inhalation)) is listed as “about 31%”. The “bioavailability when being used orally” value in data set [2] (oral) is given as 13-19%.
